In US20240172750A1, “5-Fluoro-4-Imino-3-Methyl-1-Tosyl-3,4-Dihydropyrimidin-2(1H)-One for Controlling Plant Diseases” (Adama Makhteshim Ltd., priority 2021, published 2024):

Legend:
Botrytis cinerea = assay: Grey mould in strawberry, pot trial, foliar treatment; format: in vivo; conditions: 250 OD at 450 g ai/ha, 3 applications, last assessment
Method: The compound of formula I 250 OD was tested at different doses, namely 400, 450 and 500 g ai/ha as depicted in the table below and compared to an untreated control as well as two reference products, SCALA (pyrimethanil 400 g/L) at 1000 g ai/ha and SIGNUM (boscalid+pyraclostrobin 26.7+[…]) at 600 g ai/ha.
Botrytis cinerea was artificial inoculated by spraying the inoculum on the leaves 3-4 days before the application.
To test for fungicidal control of Botrytis cinerea, the strawberry plants, grown in pots, were sprayed with each of the above treatments. 5 pots of 22 cm of diameter (the soil used for the trial is a mix of peat and perlite) with 1 plant each were used, 1 pot per replicate (each treatment is made of 4 replicates) was considered.
Each of the treatments was applied 3 times (ABC) according to the disease development as follows: A, early curative (before the disease symptoms appear; 3-4 days after the artificial inoculation), B, 7-10 days from A and C, to be evaluated in function of the disease development (7-10 days from B).
At the first symptoms the following parameters were assessed: • percentage of affected leaf area (% severity) • percentage of affected leaves (% incidence) • percentage of affected fruit area (% severity) • percentage of affected fruits (% incidence)

Rainbow trout = assay: Ecotoxicity: fish, long-term; format: in vivo
Text: (§1) The ecotoxicity of flumetylsulforim was investigated in numerous studies in accordance with the strict requirements for the approval of active substances in the EU.

Phytophtora infestans = format: in vivo; conditions: potato; 150 g ai/ha vs CUPRIZOL S 330 g ai/ha
Honeybee = assay: Ecotoxicity: honeybee, acute contact; format: in vivo
Text: as §1

[1] = system: Erysiphe betae (powdery mildew); assay: Greenhouse screening test, powdery mildew in sugar beet; format: in vivo; conditions: starting from 100 g ai/ha, applied one day after inoculation
Method: The screening test was conducted in a greenhouse in Gerichshain, Kupferstraße 6, Germany. The test was performed from application until 28 days after treatment. The efficacy and phytotoxic symptoms of compound of formula I to the plant species sugar beet were examined with a water control under greenhouse conditions. During the whole trial period the plants were stored at 12.6° C.-24.2° C. and 41.9-78.2% relative humidity.
The inoculation of the leaves was carried out. A spore suspension was produced. Infested leaves of sugar beets from a field were put in water for some minutes to get a spore suspension. For better homogeneity Tween 20 (Polysorbat) was added to the spore solution (0.1%). Two diseases were observed on the sampled leaves, Uromyces betae and Erysiphe betae, just E. betae infested the plants in this screening trial. […]
The application was carried out once one day after inoculation in an automatic application cabin at a spray volume equivalent to 200 L/ha. During the observation period of 28 days after treatment (DAT), the plants were assessed weekly for growth stage, leaf diseases and phytotoxicity. […]

Daphnia magna = assay: Ecotoxicity: aquatic invertebrates, acute; format: in vivo; conditions: wheats and barley at 2 × 100 g/ha
Text: as §1

[2] = Ecotoxicity: aquatic invertebrates, acute; format: in vivo; conditions: in vivo, Daphnia magna
Text: as §1

Maize = assay: Non-target terrestrial plants, vegetative vigour; format: in vivo
Text: as §1

Carrot = assay: Non-target terrestrial plants, vegetative vigour; format: in vivo
Text: as §1

Sugar beet = assay: Non-target terrestrial plants, vegetative vigour; format: in vivo
Text: as §1

Sunflower = assay: Non-target terrestrial plants, vegetative vigour; format: in vivo
Text: as §1

Oil seed rape = assay: Non-target terrestrial plants, vegetative vigour; format: in vivo
Text: as §1

Common oat = assay: Non-target terrestrial plants, vegetative vigour; format: in vivo
Text: as §1

Cucumber = assay: Non-target terrestrial plants, vegetative vigour; format: in vivo
Text: as §1

Onion = assay: Non-target terrestrial plants, vegetative vigour; format: in vivo
Text: as §1

Ryegrass = assay: Non-target terrestrial plants, vegetative vigour; format: in vivo
Text: as §1

Soybean = assay: Non-target terrestrial plants, vegetative vigour; format: in vivo
Text: as §1

[3] = system: Soil microbial activity (Nitrogen activity); assay: Ecotoxicity: soil microbial activity, long-term
Text: as §1

[4] = wheats and barley at 2 × 100 g/ha

Method for Cercospora kikushi: The trial is carried out in open field and no artificial inoculation is performed.
To test for fungicidal control against the late season disease, each plot (3 m×5 m) is sprayed with one of the treatments from Table 17. Each treatment is made of 4 replicates.
Three applications are made, the first approximately 14 days before flowering followed by a second one at R1 and the third at R1+14 days. A fourth application is considered based on the development of the disease.
Assessments are done before all sprays and at 7, 14 and 21 days after the last spray. The whole plot is assessed considering the 3 plant parts (bottom, mid and upper). The final grade is the mean of the 3 scores (bottom, mid and upper).
The whole plot is assessed for defoliation. The defoliation assessment takes place at R6-R7 stage when the untreated control reaches 80 to 90% defoliation. The harvest assessment is done from the middle of the plot covering at least 8 m 2/plot.

## Cc1ccc(S(=O)(=O)n2cc(F)c(=N)n(C)c2=O)cc1 [compound of formula I, 5-fluoro-4-imino-3-methyl-1-tosyl-3,4-dihydropyrimidin-2(1H)-one]
Botrytis cinerea
  control (fungicide efficacy on leaf severity): more than 90%
Rainbow trout
  NOEC: NOEC = 0.128 mg/L
Rainbow trout; [4]
  Risk at current use pattern: Acceptable
Phytophtora infestans
  control versus reference treatment: significant better control than the reference treatment
Honeybee
  LD50: LD50 > 50 μg/bee
[1]
  reduction of the affected leaf area compared to the UTC: > 60%
Daphnia magna
  Risk at current use pattern: Acceptable
[2]
  EC50: > 10 µg/mL
Cercospora kikushi; in vivo
  phytotoxicity: no significant phytotoxicity
Cercospora kikushi; soybean, 50, 100 and 200 g ai/ha
  control of Cercospora kikushi: effectively controls
Maize
  ER50: ER50 > 189 g/ha
Maize; [4]
  Risk at current use pattern: Acceptable
Carrot
  ER50: ER50 > 189 g/ha
Carrot; [4]
  Risk at current use pattern: Acceptable
Sugar beet
  ER50: ER50 > 189 g/ha
Sugar beet; [4]
  Risk at current use pattern: Acceptable
Sunflower
  ER50: ER50 > 189 g/ha
Sunflower; [4]
  Risk at current use pattern: Acceptable
Oil seed rape
  ER50: ER50 > 189 g/ha
Oil seed rape; [4]
  Risk at current use pattern: Acceptable
Common oat
  ER50: ER50 > 189 g/ha
Common oat; [4]
  Risk at current use pattern: Acceptable
Cucumber
  ER50: ER50 > 189 g/ha
Cucumber; [4]
  Risk at current use pattern: Acceptable
Onion
  ER50: ER50 > 189 g/ha
Onion; [4]
  Risk at current use pattern: Acceptable
Ryegrass
  ER50: ER50 > 189 g/ha
Ryegrass; [4]
  Risk at current use pattern: Acceptable
Soybean
  ER50: ER50 > 189 g/ha
Soybean; [4]
  Risk at current use pattern: Acceptable
[3]; soil microbial activity
  Ecotoxicity endpoint (nitrogen activity): >10.3 mg/kg dws
[3]; soil microbial nitrogen activity, wheats and barley at 2 × 100 g/ha
  Risk at current use pattern: Acceptable
